{"source": "patent US7557092B2", "about": "“Purinergic modulation of smell” (University of Utah Research Foundation, priority 2002, dated 2009)", "key": {"[1]": {"tested_on": "P2X and P2Y purinergic receptors", "settings": "cited from earlier work"}, "[2]": {"tested_on": "ORNs in mouse olfactory epithelium slices", "test": "confocal calcium imaging of fluo-4 AM loaded olfactory epithelium slices, ORNs", "format": "cell-based", "settings": "10 μM agonist superfused onto slice", "text": "(§1) To study the effects of ATP on odor responses, acutely prepared slices of mouse olfactory epithelium were used. Confocal imaging of fluo-4 AM-loaded olfactory epithelium slices allows simultaneous recording from identified structures within the olfactory epithelium, i.e., both ORNs and sustentacular cells. […] The difference in robustness can be due to poor access to the ATP stimulus: odorant receptors are on the cilia of the ORNs, which extend beyond the outer edge of the olfactory epithelium, whereas purinergic receptors are located deeper within the olfactory epithelium. […] The latency of activation for the ATP-evoked calcium transient was shorter in the ORN (FIG. 3B2, solid up arrowhead) than in sustentacular cells (FIG. 3B3, open down arrowhead). Collectively, this was consistent with ORNs expressing the faster P2X receptors, and the sustentacular cells expressing the slower G-protein coupled P2Y receptors.\n(§2) To prepare olfactory epithelium slices, neonatal mice (postnatal day 0-6) were quickly decapitated, and the skin and lower jaw were removed. Tissue was mounted in ice cold Ringers onto a vibratome-cutting block and 300 μm slices were made. Primary cultures of mouse ORNs were made using the same protocol and culture conditions as described for rat olfactory receptor neurons (Vargas and Lucero, 1999a). Briefly, tissue was placed in divalent cation-free Ringers containing 10 mg/ml bovine serum albumin, 1 mg/ml deoxyribonuclease II and 44 U/ml dispase, incubated at 37° C. for 45 min. The tissue was washed, triturated, and filtered through a […] mesh and […] cells were plated onto concanavalin A-coated coverslips and allowed to settle for 20 min. An additional 1.5 ml of culture medium was added (DMEM supplemented with […] ascorbic acid, 1X insulin-transferrin-seleniumX (GIBCO BRL), 2 mM glutamine, 100 U/ml penicillin G and […] streptomycin).\n(§3) [Ca^2+]i was determined using confocal imaging of fluo-4 AM (18 μM; Molecular Probes) loaded cells and slices. Cells or slices were placed in a laminar flow chamber (Warner Instruments) and perfused continuously with Ringers solution at a flow rate of 1.5-2.0 ml/min. Ringers contained (mM): 140 NaCl, 5 KCl, 1 MgCl2, 2 CaCl2, 10 HEPES, 10 glucose, […] and 400 nM tetrodotoxin. Test solutions were applied using bath exchange and a small volume loop injector (200 μl). A Zeiss LSM 510 confocal laser scanning system was used for data collection and analysis. Time series experiments were performed collecting 1400×700 pixel images at 0.2-0.4 Hz. The fluorometric signals obtained are expressed as relative fluorescence change, ΔF/F═(F−F0)/F0, where F0 is the basal fluorescence level. Increases in F greater than 10% above baseline noise were considered responses."}, "[3]": {"tested_on": "sustentacular cells in mouse olfactory epithelium slices", "test": "confocal calcium imaging of fluo-4 AM loaded olfactory epithelium slices, sustentacular cells", "format": "cell-based", "settings": "10 μM agonist superfused onto slice", "text": "as §1, §2, §3"}, "[4]": {"tested_on": "cultured mouse olfactory receptor neurons (ORNs)", "test": "nystatin perforated-patch voltage-clamp of cultured ORNs", "format": "cell-based", "settings": "10 μM ATP", "protocol": "The physiological activation of purinergic receptors in cultured mouse ORNs (Vargas and Lucero, 1999a) were examined using both electrophysiology (Danaceau and Lucero, 1998)(FIG. 2A), and calcium imaging (FIG. 2B-E). ATP (10 μM) evoked inward currents in 39% (27/69 ORNs) of the perforated-patched mouse ORNs during brief (1-10 s) applications (FIG. 2A). […] Rapid activation of inward current that closely followed the ATP stimulus profile with little or no desensitization was also observed, indicating involvement of non-desensitizing ionotropic P2X receptors [P2X4 and/or P2X7] (Ralevic and Burnstock, 1998)(FIG. 2A, cell 2) (14/27 cells; latency=81±15 ms, Imax=−235±74 pA). These electrophysiological results support the immunohistochemical evidence of expression of both purinergic receptor subtypes in ORNs.\nas §2\nThe nystatin perforated-patch technique (Horn and Marty, 1988) was used to examine cells under voltage-clamp. Electrodes (2-5 MΩ) were filled with TMA-oxide internal solution (in mM: 62.5 TMA oxide, 62.5 KH2PO4, 15 KCl, 5 MgCl2, 11 EGTA, 10 HEPES, 1 glutathione, 5 TEA, 0.03% pluronic acid F-127, 0.3% DMSO, […] nystatin, pH 7.2, 330 mOsm)."}, "P2Y4": {"target": "P2Y4 (Homo sapiens, UniProt P51582)", "sequence (P51582 whole entry)": "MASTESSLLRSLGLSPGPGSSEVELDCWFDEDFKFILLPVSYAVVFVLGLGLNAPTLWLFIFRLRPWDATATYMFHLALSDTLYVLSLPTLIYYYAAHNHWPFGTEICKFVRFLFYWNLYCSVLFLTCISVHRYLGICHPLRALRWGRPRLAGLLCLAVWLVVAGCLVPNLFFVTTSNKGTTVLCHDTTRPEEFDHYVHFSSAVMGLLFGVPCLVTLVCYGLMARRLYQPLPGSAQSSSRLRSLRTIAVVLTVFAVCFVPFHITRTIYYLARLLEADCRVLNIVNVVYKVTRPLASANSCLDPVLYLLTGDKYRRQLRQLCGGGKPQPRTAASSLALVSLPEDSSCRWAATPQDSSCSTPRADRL", "settings": "cDNA from Human chromosome X; cited from earlier work"}, "[5]": {"settings": "cells with long latent period (P2Y-like), 13/27 cells"}, "[6]": {"settings": "rapidly activating cells (P2X-like), 14/27 cells"}}, "data": [{"compound": "Nc1ncnc2c1ncn2[C@@H]1O[C@H](COP(=O)(O)OP(=O)(O)OP(=O)(O)O)[C@@H](O)[C@H]1O", "note": "[ATP, Adenosine 5′-triphosphate]", "values": [{"measurement": "concentrations that activate P2X and P2Y purinergic receptors", "setting": "[1]", "value": "0.1 to 10", "unit": "µM"}, {"measurement": "agonist-evoked calcium transients in ORNs", "setting": "[2]", "value": "evoked calcium transients from all 11 ORNs"}, {"measurement": "agonist-evoked calcium transients in sustentacular cells", "setting": "[3]", "value": "evoked calcium transients"}, {"measurement": "ORNs in which ATP evoked inward currents", "setting": "[4]; brief (1-10 s) applications, perforated-patched mouse ORNs, 27/69 ORNs", "value": 39, "unit": "%"}, {"measurement": "Imax", "setting": "[4]; [5]", "value": "−29±8", "unit": "pA"}, {"measurement": "latency of inward current", "setting": "[4]; [5]", "value": "1140 ± 236", "unit": "ms"}, {"measurement": "Imax", "setting": "[4]; [6]", "value": "−235±74", "unit": "pA"}, {"measurement": "latency of inward current", "setting": "[4]; [6]", "value": "81 ± 15", "unit": "ms"}, {"measurement": "Agonist activity", "setting": "P2Y4", "value": "UTP > UDP (ATP inactive)"}]}]}
